Experimental data from patent publication US12551526B2, “Enterically delivered bitter oligopeptides for the treatment for type 2 diabetes” (Cedars-Sinai Medical Center, priority 2015, dated 2026).
Where a chain is given by its changes, count along the chain named. “Also recorded” adds a separate entry of the source. Read-outs that look alike come from different tables or passages of the source. Blank lines part the entries; values can stand above or below the molecule they belong to.

What was measured:
HuTu-80 cells [1] = experiment: GLP-1 release from cultured HuTu-80 cells (Luminex assay); format: cell-based, human; conditions: FIG. 3; printed as based on in vivo studies in mice
HuTu-80 cells [2] = experiment: as above; format: cell-based, human; conditions: for GLP-1 release: HuTu-80 cells treated 30 min, GLP-1 in conditioned media; for GLP-1 release compared with TAS2R38 ligands PTC and PTU / increase in GLP-1 over the basal release: HuTu-80 cells; for GLP-1 release compared with TAS2R38 ligands PTC and PTU: FIG. 9B, PTC and PTU 10 mM; for increase in GLP-1 over the basal release: 30 min, FIG. 9A
Method: HuTu-80 cells were untreated (zero-time) or treated with vehicle and various phytochemicals at indicated concentrations for 30 min. […] Values are mean±SE, N=3, *P<0.05, **P<0.01
HuTu-80 cells (HTB-40, ATCC) were propagated in Dulbecco's modified Eagle's medium (DMEM) containing 4 mM L-glutamine, 1.5 g/L sodium bicarbonate, and 4.5 g/L glucose, supplemented with 10% FBS and PSG antibiotic mix and maintained at 10% CO2 and 37° C. For experiments, these cells were seeded in 6-well plates or […] tissue culture dishes, propagated to confluence (5-7 days) and arrested in serum-free media overnight prior to treatments. Prior to the experiment, spent media was replaced with OPTI-MEM (Gibco, Life Technologies, Grand Island, NY) containing Halt Protease and Phosphatase Inhibitor cocktail (Thermo Fisher Scientific, Rockford, IL) and individual wells dosed for 30 min. […] The media from cells was collected and frozen for subsequent peptide hormone release measurement using a Luminex MAGPIX metabolism multiplexing assay kit (HMHMAG-34K) following the manufacturer's instructions.

TAS2R38 = target: T1, TAS2R38 (Homo sapiens, UniProt P59533); experiment: GLP-1 release in HuTu-80 cells with TAS2R38 siRNA knockdown; format: cell-based; conditions: siTAS2R38 versus siCONTROL, 30 min
T1 construct: Cultured HuTu-80 cells were transfected with single and mixed oligonucleotide siRNAs for TAS2R38; host or cells: HuTu-80
T1 sequence (P59533 1-333): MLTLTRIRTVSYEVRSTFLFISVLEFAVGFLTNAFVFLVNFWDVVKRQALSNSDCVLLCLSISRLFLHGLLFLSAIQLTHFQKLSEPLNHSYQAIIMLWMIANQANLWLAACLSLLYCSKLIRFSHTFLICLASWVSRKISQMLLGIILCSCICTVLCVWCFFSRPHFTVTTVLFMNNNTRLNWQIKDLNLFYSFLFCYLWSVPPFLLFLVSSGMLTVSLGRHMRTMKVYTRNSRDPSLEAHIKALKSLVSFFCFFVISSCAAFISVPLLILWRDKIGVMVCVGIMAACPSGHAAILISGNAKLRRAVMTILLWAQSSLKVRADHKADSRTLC
Method: In order to determine the specific GPCR mediating the response of a particular ligand, we performed in vitro RNA silencing of TAS2R38. RNA silencing was performed using a commercial kit (FlexiTube siRNA, Qiagen) consisting of 4 predesigned oligonucleotides that specifically target each gene transcript. Each kit also had accompanying controls and quantifying assays for detection of gene knockdown. Cultured HuTu-80 cells were transfected with single and mixed oligonucleotide siRNAs for TAS2R38 using HiPerFect transfection reagent (Qiagen) or Lipofectamine 2000 (Life Tech) according to the procedure recommended by the manufacturer. Cells were maintained in the basal medium for up to 48 h. Gene knockdown was evaluated by RT-qPCR and Western blot by suitable antibody to ensure inhibition occurred. […] Dose-response curve of the ligand with and without siRNA treatment was generated.
FIGS. 6, 7, and 8 show the receptor expression and knockdown in HuTu-80 cells using a TAS2R38 receptor siRNA.
Conditioned media were collected and frozen until GLP-1 measurement. Values are mean±SD, N=3. GLP-1 is measured using Luminex assay.

GLP-1 release = experiment: In vivo GLP-1 release in mice after gastric gavage; conditions: PTU-cellulose 5 g/kg, PTU 200 mg/kg, FIG. 4B
Method: FIG. 4A Synthesis of PTU-cellulose.
Retro-orbital blood was obtained and GLP-1 was measured at regular intervals.
The molecules were administered by gastric gavage to pathogen-free, 6-to-8-week-old male BALB/c mice. […] The cellulose alone had no effect.

hTAS2R38AVI = target: T2, hTAS2R38AVI (Homo sapiens, UniProt P59533, A262V); conditions: non-taster haplotype; cited from earlier work
T2 sequence (P59533 1-333 A262V): T1 sequence (P59533 1-333) with A262V

hTAS2R38PAV = target: T3, hTAS2R38PAV (Homo sapiens, UniProt P59533); conditions: taster haplotype; cited from earlier work
T3 sequence (P59533 1-333): T1 sequence (P59533 1-333)

HuTu-80 cells [3] = conditions: previous studies; cited from earlier work

Molecule: YPFPGPIPN [BPx2, bitter oligopeptide derived from milk-whey proteins]
potency rank among the four oligopeptides (HuTu-80 cells [1]): most potent

Molecule: CCCCCCCCCCCCCCCC(=O)O [palmitate, palmitic acid]
GLP-1 release (HuTu-80 cells [2]): GLP-1 secretory response was also observed
GLP-1 release compared with TAS2R38 ligands PTC and PTU (HuTu-80 cells [2]): stimulate GLP-1 release comparable to that by TAS2R38 ligands PTC and PTU

Molecule: Ala-Ala-Ala-Ala (AAAA; printed: Ala-Ala-Ala-Ala) [PolyAla, scrambled PolyAla control peptide]
GLP-1 release (HuTu-80 cells [2]): in effective at causing GLP-1 release

Molecule: CC1(C)CC[C@]2(C(=O)O)CC[C@]3(C)C(=CC[C@@H]4[C@@]5(C)CC[C@H](O)C(C)(C)[C@@H]5CC[C@]43C)[C@@H]2C1 [oleanolic acid]
increase in GLP-1 over the basal release (HuTu-80 cells [2]): significant increases

Molecule: O=c1oc2c(O)c(O)cc3c(=O)oc4c(O)c(O)cc1c4c23 [ellagic acid]
increase in GLP-1 over the basal release (HuTu-80 cells [2]): significant increases

Molecule: YGLF [BPx1, bitter oligopeptide derived from milk-whey proteins]
GLP-1 release when TAS2R38 expression is knocked down (TAS2R38): predominantly through TAS2R38; also recorded: decreased
potency rank among the four oligopeptides (HuTu-80 cells [1]): most potent

Molecule: CCC(=O)O [propionate]
GLP-1 release (HuTu-80 cells [2]): GLP-1 secretory response was also observed
GLP-1 release compared with TAS2R38 ligands PTC and PTU (HuTu-80 cells [2]): stimulate GLP-1 release comparable to that by TAS2R38 ligands PTC and PTU

GLP-1 release when TAS2R38 expression is knocked down (TAS2R38): right-shifted
Molecule: CCCc1cc(=O)[nH]c(=S)[nH]1 [PTU, 6-n-propylthiouracil]
GLP-1 release (HuTu-80 cells [2]): caused GLP-1 release
GLP-1 release into the blood (GLP-1 release): caused GLP-1 release into the blood

Molecule: CN(C)C(=N)N=C(N)N [metformin]
GLP-1 release (HuTu-80 cells [2]): can activate GLP-1 release

Molecule: O=c1oc2cc(O)ccc2c2ccc(O)cc12 [urolithin A]
increase in GLP-1 over the basal release (HuTu-80 cells [2]): significant increases

Molecule: NC(=S)Nc1ccccc1 [PTC, Phenylthiocarbamide]
receptor response (hTAS2R38AVI): does not respond
receptor response (hTAS2R38PAV): strong response at μM concentrations
GLP-1 release (HuTu-80 cells [3]): GLP-1 release
